Here are results for three compounds from patent US11958857B1, “5-(1H-indol-3-yl)-1,3-substitutedpyrimido[4,5-d]pyrimidine-2,4,7(1H,3H,8H)-trione as anticancer agents” (KING FAISAL UNIVERSITY, priority 2023, dated 2024).

Each structure is given as a SMILES string.

Data set [1] relates to A2780 cells (ovarian cancer). The data set can be described thus: single dose MTT assay, A2780. The data set is classed as cell-based. The following applies: 10 μM, 48 h, Mean ± SEM of three independent experiments. From the text: (§1) All of the target compounds 5-(1H-indol-3-yl)-1,3-substituted pyrimido[4,5-d]pyrimidine-2,4,7(1H,3H,8H)-trione derivatives (4a-c) were subjected to a single dose MTT (3-(4,5-dimethylthiazol-2-yl)-2,5-diphenyltetrazolium bromide) assay to evaluate their cytotoxicity (growth-inhibiting activities) against the breast cancer (MCF-7, MDA-MB-231), ovarian cancer (A2780, SKOV-3) and cervical cancer (HELA) cell lines. Cell lines were obtained from ATCC (American Type Culture Collection). Doxorubicin was used as a positive control.
(§2) HELA and MCF-7 cells were seeded at 10000 cells/well, while MDA-MB-231, A2780, and SKOV-3 cells were seeded at 20000 cells/well in 96 well plates to ensure that cells were non-confluent and able to proliferate over the course of the assay period. After 24 h in culture, cells were treated with test compounds 5-(1H-indol-3-yl)-1,3-substituted pyrimido[4,5-d]pyrimidine-2,4,7(1H,3H,8H)-trione derivatives (4a-c) at a single dose of 10 μM concentration and incubated for 48 h. Cells were inspected under the microscope to detect any visible morphological changes. Cells were washed with PBS, and then the cells were treated with 100 μl of 1 mg/ml fresh filtered MTT suspended in a culture medium; the plates were covered with aluminum foil and incubated for 45 min. Cell viability was marked by the conversion of MTT to the dark-blue-colored formazan by mitochondrial dehydrogenases. DMSO was added to dissolve the insoluble purple formazan product, and optical density (OD) was measured by using a spectrophotometer at a wavelength of […]. The assay was performed in the dark as MTT is light-sensitive. Control wells of culture medium only (without cells) were included as blanks for absorbance measurements.
(§3) Cell viability was calculated according to the following formula: % Cell viability=(OD sample-OD blank/OD control-OD blank)×100 where the blank is given by wells without cells (medium only), control is untreated cells (100% viable).

Data set [2] has as its system MDA-MB-231 cells (breast cancer). The data set can be described thus: single dose MTT assay, MDA-MB-231. The data set is classed as cell-based. The conditions noted are these: 10 μM, 48 h, Mean ± SEM of three independent experiments.
Description: as §1, §2, §3

For data set [3], the system named is HeLa cells (cervical cancer). The data set can be described thus: single dose MTT assay, HeLa. Type of data set: cell-based. The following applies: 10 μM, 48 h, Mean ± SEM of three independent experiments.
Description: as §1, §2, §3
For orientation: Tetrazolium assays rely on reduction of a dye to a coloured formazan, in cell work by metabolically active cells.

Data set [4] has as its system SKOV3 cells (ovarian cancer). The data set can be described thus: single dose MTT assay, SKOV3. Type of data set: cell-based. The conditions noted are these: 10 μM, 48 h, Mean ± SEM of three independent experiments.
Description: as §1, §2, §3

Data set [5] relates to MCF7 cells (breast cancer). The data set can be described thus: single dose MTT assay, MCF7. Type of data set: cell-based. The conditions noted are these: 10 μM, 48 h, Mean ± SEM of three independent experiments.
Description: as §1, §2, §3

As to `O=c1nc(-c2c[nH]c3ccccc23)c2c(=O)[nH]c(=O)[nH]c2[nH]1` [Compound 4a, 5-(1H-Indol-3-Yl)Pyrimido[4,5-d]Pyrimidine-2,4,7(1H,3H,8H)-Trione], the melting point (usually the temperature, or range, at which the solid turns liquid) fell in the range of 160 to 162 °C. Further, in data set [1], the “Anticancer effect on cancer cell lines A2780 (proliferation percentage)” value is 78 ± 3.60. The “Anticancer effect on cancer cell lines MDA-MB-231 (proliferation percentage)” value in data set [2] stood at 82 ± 1.01. In data set [3], the “Anticancer effect on cancer cell lines HeLa (proliferation percentage)” value was found to be 57 ± 6.13. In addition, in data set [4], the “Anticancer effect on cancer cell lines SKOV3 (proliferation percentage)” value amounted to 79 ± 0.92. Further, the “Anticancer effect on cancer cell lines MCF7 (proliferation percentage)” value in data set [5] was found to be 98 ± 3.15.
With `O=c1nc(-c2c[nH]c3ccccc23)c2c(=O)[nH]c(=S)[nH]c2[nH]1` [Compound 4b, 4-(1H-Indol-3-Yl)-7-Thioxo-7,8-Dihydropyrimido[4,5-d]Pyrimidine-2,5(1H,6H)-Dione], the melting point is 180 to 182 °C. For the same compound, in data set [1], the “Anticancer effect on cancer cell lines A2780 (proliferation percentage)” value amounted to 82 ± 4.05. Further, the “Anticancer effect on cancer cell lines MDA-MB-231 (proliferation percentage)” value in data set [2] amounted to 61 ± 6.00. Moreover, the “Anticancer effect on cancer cell lines HeLa (proliferation percentage)” value in data set [3] amounted to 59 ± 2.91. The “Anticancer effect on cancer cell lines SKOV3 (proliferation percentage)” value in data set [4] is reported as 69 ± 1.31. In data set [5], the “Anticancer effect on cancer cell lines MCF7 (proliferation percentage)” value was determined as 68 ± 4.57.
Compound `Cn1c(=O)c2c(-c3c[nH]c4ccccc34)nc(=O)[nH]c2n(C)c1=O` [Compound 4c, 5-(1H-Indol-3-Yl)-1,3-Dimethylpyrimido[4,5-d]Pyrimidine-2,4,7(1H,3H,8H)-Trione] had a melting point of 256 to 258 °C. Moreover, the “Anticancer effect on cancer cell lines A2780 (proliferation percentage)” value in data set [1] is reported as 63 ± 1.47. Also, the “Anticancer effect on cancer cell lines MDA-MB-231 (proliferation percentage)” value in data set [2] amounted to 62 ± 1.35. The “Anticancer effect on cancer cell lines HeLa (proliferation percentage)” value in data set [3] is given as 19 ± 1.58. Moreover, the “Anticancer effect on cancer cell lines SKOV3 (proliferation percentage)” value in data set [4] is recorded as 57 ± 3.40. In data set [5], the “Anticancer effect on cancer cell lines MCF7 (proliferation percentage)” value is listed as 44 ± 3.90.
